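1) Cells in 96-well plates. 2) Compound, 48 h, 5 concentrations. 3) Linear interpolation between surrounding doses. 4) Unreached endpoint = highest concentration. GI50 = concentration required for 50% inhibition of growth.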 The source made the active and inactive calls. No stated cut-off is given here; in the data, active = GI50 up to about 1.1 µM and inactive = higher.
Key:
Assay in all cases: NCI anticancer screen, dose series, 48 h
[1] = system: OVCAR-5
[2] = system: NCI-H226
[3] = system: SR
[4] = system: SNB-78
[5] = system: HT-29
[6] = system: ACHN
[7] = system: NCI-H460
[8] = system: SF-539
[9] = system: HL-60
[10] = system: RXF 393
[11] = system: EKVX
[12] = system: SK-MEL-28
[13] = system: SNB-19
[14] = system: A498
[15] = system: KM12
[16] = system: CAKI-1
[17] = system: SK-MEL-5
[18] = system: SNB-75
[19] = system: BT-549
[20] = system: MDA-MB-231

Compound	GI50 [1]	GI50 [2]	GI50 [3]	GI50 [4]	GI50 [5]	GI50 [6]	GI50 [7]	GI50 [8]	GI50 [9]	GI50 [10]	GI50 [11]	GI50 [12]	GI50 [13]	GI50 [14]	GI50 [15]	GI50 [16]	GI50 [17]	GI50 [18]	GI50 [19]	GI50 [20]
COc1ccc(CNc2nc3ccccc3nc2-c2cccs2)cc1OC	> 100 µM (inactive)	68.5 µM (inactive)	15.5 µM (inactive)	82.8 µM (inactive)	46.2 µM (inactive)	23.1 µM (inactive)	20.8 µM (inactive)	41 µM (inactive)	22 µM (inactive)	41.9 µM (inactive)	59 µM (inactive)	84.5 µM (inactive)	> 100 µM (inactive)	–	–	–	–	–	–	–
CCc1cc(Cc2cc(CC)c(NC(=O)C3=CC(=O)CC(c4ccc(OC)cc4)O3)c(CC)c2Cl)c(Cl)c(CC)c1NC(=O)C1=CC(=O)CC(c2ccc(OC)cc2)O1 (configuration not stated)	20.7 µM (inactive)	24.8 µM (inactive)	22.5 µM (inactive)	28.2 µM (inactive)	20.2 µM (inactive)	17.9 µM (inactive)	17.7 µM (inactive)	20.2 µM (inactive)	23.2 µM (inactive)	17.9 µM (inactive)	30.5 µM (inactive)	23.3 µM (inactive)	21.4 µM (inactive)	21.7 µM (inactive)	10.5 µM (inactive)	27.7 µM (inactive)	20.3 µM (inactive)	20 µM (inactive)	–	–
CCC1=C(CC2NCCc3ccccc32)CC2c3cc(OC)c(OC)cc3CCN2C1 (configuration not stated)	0.579 µM (active)	0.757 µM (active)	0.342 µM (active)	1.44 µM (inactive)	0.284 µM (active)	0.367 µM (active)	0.3 µM (active)	0.578 µM (active)	0.847 µM (active)	0.635 µM (active)	0.305 µM (active)	1.16 µM (inactive)	0.614 µM (active)	0.83 µM (active)	0.443 µM (active)	0.473 µM (active)	0.585 µM (active)	0.531 µM (active)	2.14 µM (inactive)	0.358 µM (active)
Cc1ccccc1NC(=O)C(=O)C(c1cnc2ccc([N+](=O)[O-])cc2n1)[N+](=O)[O-] (configuration not stated)	> 100 µM (inactive)	> 100 µM (inactive)	> 100 µM (inactive)	> 100 µM (inactive)	> 100 µM (inactive)	> 100 µM (inactive)	> 100 µM (inactive)	> 100 µM (inactive)	24.9 µM (inactive)	> 100 µM (inactive)	> 100 µM (inactive)	> 100 µM (inactive)	> 100 µM (inactive)	> 100 µM (inactive)	> 100 µM (inactive)	> 100 µM (inactive)	87.3 µM (inactive)	> 100 µM (inactive)	–	–
N#C/C1=C(\N)CCSSSC1	53.1 µM (inactive)	33.6 µM (inactive)	33.7 µM (inactive)	21.7 µM (inactive)	31 µM (inactive)	41.7 µM (inactive)	23.6 µM (inactive)	33.4 µM (inactive)	> 10 µM (inactive)	58.3 µM (inactive)	45.9 µM (inactive)	43.6 µM (inactive)	37.2 µM (inactive)	28.9 µM (inactive)	51.1 µM (inactive)	58.7 µM (inactive)	26.1 µM (inactive)	42.3 µM (inactive)	–	–
CCCCCCCCCCCCCCCC(=O)OCC1OC(n2ccc(N)nc2=O)C(O)C1O (configuration not stated)	> 38 µM (inactive)	> 100 µM (inactive)	1.5 µM (inactive)	> 100 µM (inactive)	35.2 µM (inactive)	0.753 µM (active)	0.401 µM (active)	> 100 µM (inactive)	0.59 µM (active)	> 85.3 µM (inactive)	> 69 µM (inactive)	33.5 µM (inactive)	16.9 µM (inactive)	4.49 µM (inactive)	> 100 µM (inactive)	5.36 µM (inactive)	18.5 µM (inactive)	> 100 µM (inactive)	> 100 µM (inactive)	> 100 µM (inactive)
